Test results from ChEMBL document CHEMBL4513139, “CO-ADD screening of University of Strathclyde (UK) compounds”.
Values after ≈ are worked out from the molar mass of the structure shown. Values joined by “and” are separate entries in the source; they are usually repeats but may differ in a detail not shown here. Equal values may be shown once.

Columns and labels:
Klebsiella pneumoniae = experiment: microbe, parasite or virus in culture; settings: ATCC 700603, 18 h, ASSAY_TEST Inhibition of Bacterial Growth, detection method Absorption (OD600), MEDIA CAMHB, plate type 384well, NBS, CORNING #3640
Description: Antibacterial activity against Klebsiella pneumoniae MDR ATCC 70063 (CO-ADD:GN_003); MIC in CAMBH media using NBS plates, by OD(600)

Pseudomonas aeruginosa = experiment: microbe, parasite or virus in culture; settings: ATCC 27853, 18 h, ASSAY_TEST Inhibition of Bacterial Growth, detection method Absorption (OD600), MEDIA CAMHB, plate type 384well, NBS, CORNING #3640
Description: Antibacterial activity against Pseudomonas aeruginosa ATCC 27853 (CO-ADD:GN_042); MIC in CAMBH media using NBS plates, by OD(600)

HEK293 = experiment: cells; format: functional, Homo sapiens, ATCC CRL1573; settings: ASSAY_TEST Inhibition of Cell Viability, detection method Resazurin, Fluorescence (ex560/em590), MEDIA DMEM with 10% FBS, plate type 384well, TC, CORNING #3712, time 18 hr
Escherichia coli = experiment: microbe, parasite or virus in culture; settings: ATCC 25922, 18 h, ASSAY_TEST Inhibition of Bacterial Growth, detection method Absorption (OD600), MEDIA CAMHB, plate type 384well, NBS, CORNING #3640
Description: Antibacterial activity against Escherichia coli ATCC 25922 (CO-ADD:GN_001); MIC in CAMBH media using NBS plates, by OD(600)

Staphylococcus aureus = experiment: microbe, parasite or virus in culture; settings: ATCC 43300, 18 h, ASSAY_TEST Inhibition of Bacterial Growth, detection method Absorption (OD600), MEDIA CAMHB, plate type 384well, NBS, CORNING #3640
Description: Antibacterial activity against Staphylococcus aureus MRSA ATCC 43300 (CO-ADD:GP_020); MIC in CAMBH media, using NBS plates, by OD(600)

Candida albicans = experiment: microbe, parasite or virus in culture; settings: ATCC 90028, ASSAY_TEST Inhibition of Fungal Growth, detection method Absorption (OD530), plate type 384well, NBS, CORNING #3640
Description: Antifungal activity against Candida albicans ATCC 90028 (CO-ADD:FG_001); MIC in YNB media using NBS plates, by OD630

Acinetobacter baumannii = experiment: microbe, parasite or virus in culture; settings: ATCC 19606, 18 h, ASSAY_TEST Inhibition of Bacterial Growth, detection method Absorption (OD600), MEDIA CAMHB, plate type 384well, NBS, CORNING #3640
Description: Antibacterial activity against Acinetobacter baumannii ATCC 19606 (CO-ADD:GN_034); MIC in CAMBH media using NBS plates, by OD600

[1] = Homo sapiens, ATCC CRL1573, HEK293, read-out: CC50

Description for Cryptococcus neoformans: Antifungal activity against Cryptococcus neoformans H99 ATCC 208821 (CO-ADD:FG_002); MIC in YNB media using NBS plates, by Resazurin OD(600-570)

| MIC (Klebsiella pneumoniae) | MIC (Pseudomonas aeruginosa) | MIC (Escherichia coli) | MIC (Cryptococcus neoformans) | MIC (Staphylococcus aureus) | MIC (Candida albicans) | MIC (Acinetobacter baumannii) | Compound | CC50 (HEK293; [1]) [µg/mL] | CC50 (HEK293) [µg/mL] |
| --- | --- | --- | --- | --- | --- | --- | --- | --- | --- |
| > 32 µg/mL | > 32 µg/mL | > 32 µg/mL | 16 µg/mL | 16 µg/mL | > 32 µg/mL | > 32 µg/mL | CC(=O)Nc1cc(C(=O)Nc2cc(C(=O)Nc3nc(C(=O)NCCCN(C)C)c(CCC(C)C)s3)n(C)c2)n(C)c1 | > 32 |  |
| > 32 µg/mL | > 32 µg/mL | > 32 µg/mL |  | 1 µg/mL | 1 µg/mL | > 32 µg/mL | CN(C)CCNC(=O)c1cc(NC(=O)c2cc(NC(=O)c3ccc(/C=C/c4ccc(N(C)C)cc4)nc3)cn2C)cn1C.O=C(O)C(F)(F)F | 2.17 |  |
| > 32 µg/mL | > 32 µg/mL | > 32 µg/mL | > 32 µg/mL | > 32 µg/mL | > 32 µg/mL | > 32 µg/mL | COCCOC1CCN(C(=O)c2cc(NC(=O)c3cc(NC(=O)c4ccc(/C=C/c5ccc(OC)cc5)nc4)cn3C)cn2C)CC1.O=S(=O)(O)O | 15.5 |  |
| > 32 µg/mL | > 32 µg/mL | > 32 µg/mL | 32 µg/mL | 2 µg/mL | > 32 µg/mL | > 32 µg/mL | Cn1cc(NC(=O)c2ccc(/C=C/c3cnc4ccccc4c3)cc2)cc1C(=O)NCCN1CCOCC1.O=C(O)C(F)(F)F.O=C(O)C(F)(F)F | 2.42 |  |
| > 32 µg/mL | > 32 µg/mL | > 32 µg/mL | 4 µg/mL and 8 µg/mL | > 32 µg/mL | > 32 µg/mL | > 32 µg/mL | Cn1cc(NC(=O)c2ccc(/C=C/c3cnc4ccccc4c3)cc2)cc1C(=O)Nc1cc(C(=O)NCCN2CCOCC2)n(CCCc2ccccc2)c1.O=C(O)C(F)(F)F.O=C(O)C(F)(F)F |  |  |
| > 32 µg/mL | > 32 µg/mL | > 32 µg/mL | 16 µg/mL | 2 µg/mL | > 32 µg/mL | > 32 µg/mL | Cn1cc(NC(=O)c2ccc(/C=C/c3cnc4ccccc4c3)cc2)cc1C(=O)Nc1cc(C(=O)NCCN2CCOCC2)n(CCCN=[N+]=[N-])c1.O=C(O)C(F)(F)F.O=C(O)C(F)(F)F | 4.48 |  |
| > 32 µg/mL | > 32 µg/mL | > 32 µg/mL |  | 8 µg/mL | > 32 µg/mL | > 32 µg/mL | COc1ccc(C(=N)Nc2cc(C(=O)Nc3nc(C(=O)NCCN4CCOCC4)c(CCc4ccccc4)s3)n(C)c2)cc1.O=C(O)C(F)(F)F.O=C(O)C(F)(F)F | 8.88 |  |
| > 32 µg/mL | > 32 µg/mL | > 32 µg/mL | 8 µg/mL | > 32 µg/mL | 32 µg/mL | > 32 µg/mL | Cn1cc(NC(=O)c2cc(NC(=O)c3ccc(/C=C/c4cnc5ccccc5c4)cc3)cn2C)cc1C(=O)NCCC(=N)N.O=C(O)C(F)(F)F.O=C(O)C(F)(F)F | 6.55 |  |
| > 32 µg/mL | > 32 µg/mL | > 32 µg/mL | > 32 µg/mL | > 32 µg/mL | > 32 µg/mL | > 32 µg/mL | Cn1cc(NC(=O)c2cc(NC(=O)c3ccc(/C=C/c4ccc5nonc5c4)cc3)cn2C)cc1C(=O)NCCN1CCOCC1.O=C(O)C(F)(F)F |  |  |
| > 32 µg/mL | > 32 µg/mL | > 32 µg/mL | 4 µg/mL | 16 µg/mL | > 32 µg/mL | > 32 µg/mL | CC(C)CCc1sc(NC(=O)c2cc(NC(=O)c3cc(NC(=N)N)cn3C)cn2C)nc1C(=O)NCCCN(C)C.O=C(O)C(F)(F)F.O=C(O)C(F)(F)F | 19.9 |  |
| > 32 µg/mL | > 32 µg/mL | > 32 µg/mL |  | > 32 µg/mL | > 32 µg/mL | > 32 µg/mL | COc1cccc(/C=C/c2ccc(C(=O)Nc3cc(C(=O)Nc4cc(C(=O)NCCN5CCOCC5)n(C)c4)n(C)c3)cc2)c1.O=C(O)C(F)(F)F | 3.75 | 3.46 |
| > 32 µg/mL | > 32 µg/mL | > 32 µg/mL | 2 µg/mL | 2 µg/mL | 4 µg/mL | > 32 µg/mL | CN(C)CCNC(=O)c1cc(NC(=O)c2cc(NC(=O)c3ccc(/C=C/c4ccc(N(C)C)cc4)nc3)cn2C)cn1C.O=C(O)C(F)(F)F.O=C(O)C(F)(F)F | 1.13 |  |
| > 32 µM | > 32 µM | > 32 µM | > 32 µM | > 32 µM | > 32 µM | > 32 µM | Cn1cc(NC(=O)c2cc(NC=O)cn2C)cc1C(=O)NCCC(=N)N.O=C(O)C(F)(F)F | > 32 |  |
| > 32 µg/mL | > 32 µg/mL | > 32 µg/mL | 1 µg/mL | 16 µg/mL | > 32 µg/mL | > 32 µg/mL | COc1ccc(C(=N)Nc2cc(C(=O)Nc3nc(C(=O)NCCN4CCOCC4)c(CCc4ccccc4)s3)n(C)c2)cc1 | 7.47 (≈ 12.1 µM) |  |
| > 32 µg/mL | > 32 µg/mL | > 32 µg/mL | > 32 µg/mL | > 32 µg/mL | > 32 µg/mL | > 32 µg/mL | Cn1cc(NC(=O)c2cc(NC(=O)c3ccc(/C=C/c4cnc5ccccc5c4)cc3)cn2C)cc1C(=O)NCCN1CCCC1=O.O=C(O)C(F)(F)F | 12.7 |  |
| > 32 µg/mL | > 32 µg/mL | > 32 µg/mL | > 32 µg/mL | > 32 µg/mL | > 32 µg/mL | > 32 µg/mL | Cn1cc(NC(=O)c2cc(NC(=N)c3cnc4ccccc4c3)cn2C)cc1C(=O)NCCC(=N)N.O=C(O)C(F)(F)F.O=C(O)C(F)(F)F.O=C(O)C(F)(F)F | > 32 |  |
| > 32 µg/mL | > 32 µg/mL | > 32 µg/mL | > 32 µg/mL | > 32 µg/mL | > 32 µg/mL | > 32 µg/mL | Cn1cc(NC(=O)c2ccc(/C=C/c3cnc4ccccc4c3)cc2)cc1C(=O)Nc1nc(C(=O)NCCN2CCOCC2)c(C2CCCCC2)s1.O=C(O)C(F)(F)F.O=C(O)C(F)(F)F | > 32 |  |
| > 32 µg/mL | > 32 µg/mL | > 32 µg/mL | 32 µg/mL | > 32 µg/mL | > 32 µg/mL | > 32 µg/mL | Cn1cc(NC(=O)c2cc(NC(=O)c3ccc(/C=C/C4CC4)cc3)cn2C)cc1C(=O)NCCN1CCOCC1.O=C(O)C(F)(F)F |  |  |
| > 32 µg/mL | > 32 µg/mL | > 32 µg/mL | > 32 µg/mL | 1 µg/mL | > 32 µg/mL | > 32 µg/mL | COc1ccc(/C=C/c2ccc(C(=O)Nc3cc(C(=O)Nc4cc(C(=O)NCCN5CCC(OC)CC5)n(C)c4)n(C)c3)cn2)cc1.O=C(O)C(F)(F)F.O=C(O)C(F)(F)F | 2.7 |  |
| > 32 µM | > 32 µM | > 32 µM | > 32 µM | > 32 µM | > 32 µM | > 32 µM | COc1ccc(/C=C/c2ccc(C(=O)Nc3cc(C(=O)Nc4nc(C(=O)NCCN5CCOCC5)c(C5CCCCC5)s4)n(C)c3)cn2)cc1.O=C(O)C(F)(F)F.O=C(O)C(F)(F)F | 4.56 |  |
| > 32 µg/mL | > 32 µg/mL | > 32 µg/mL | > 32 µg/mL | > 32 µg/mL | > 32 µg/mL | > 32 µg/mL | COc1ccc(/C=C/c2ccc(C(=O)Nc3cc(C(=O)Nc4nc(C(=O)NCCN5CCOCC5)c(CCc5ccccc5)s4)n(C)c3)cn2)cc1.O=C(O)C(F)(F)F.O=C(O)C(F)(F)F | > 32 |  |
| > 32 µg/mL | > 32 µg/mL | > 32 µg/mL | > 32 µg/mL | > 32 µg/mL | > 32 µg/mL | > 32 µg/mL | Cn1cc(NC(=O)c2cc(NC(=O)C(C)(C)C)cn2C)cc1C(=O)NCCC(=N)N.O=C(O)C(F)(F)F | 12.3 |  |
